Data published in patent US20250230193A1, “CYCLIC COMPOUND HAVING SELECTIVE KRAS INHIBITORY EFFECT ON HRAS AND NRAS” (CHUGAI SEIYAKU KABUSHIKI KAISHA, priority 2022, published 2025).

Assays:
[1] = biological target: GDP-bound NRAS wild-type protein (Homo sapiens, UniProt P01111); experiment: Binding to NRAS by surface plasmon resonance (SPR), Single Cycle Kinetics; details: KD ratio NRAS/KRAS, SPR
[2] = biological target: GDP-bound HRAS wild-type protein (Homo sapiens, UniProt P01112); experiment: Binding to HRAS by surface plasmon resonance (SPR), Single Cycle Kinetics; details: KD ratio HRAS/KRAS, SPR
GDP-bound HRAS wild-type protein, sequence (P01112 whole entry): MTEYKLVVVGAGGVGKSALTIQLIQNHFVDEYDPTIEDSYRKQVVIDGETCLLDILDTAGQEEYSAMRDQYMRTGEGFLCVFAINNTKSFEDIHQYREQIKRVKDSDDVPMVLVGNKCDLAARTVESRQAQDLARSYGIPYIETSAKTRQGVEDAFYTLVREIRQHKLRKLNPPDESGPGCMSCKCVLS

GDP-bound NRAS wild-type protein, sequence (P01111 whole entry): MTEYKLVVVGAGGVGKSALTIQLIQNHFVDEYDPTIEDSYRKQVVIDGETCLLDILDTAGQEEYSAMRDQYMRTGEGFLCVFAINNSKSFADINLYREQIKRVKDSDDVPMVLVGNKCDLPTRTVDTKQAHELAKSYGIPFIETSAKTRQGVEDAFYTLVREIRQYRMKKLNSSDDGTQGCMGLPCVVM

Row | Structure (SMILES) | NRAS/KRAS (ratio of KD value with respect to GDP-bound NRAS wild-type protein to KD value with respect to KRAS) [1] | HRAS/KRAS (ratio of KD value with respect to GDP-bound HRAS wild-type protein to KD value with respect to KRAS) [2]
1 | CCO[C@@H]1C[C@H]2C(=O)NC3(CCC3)C(=O)N(C)[C@@H](C3CCCC3)C(=O)N(C)[C@H](C(=O)N3CCOCC3)CC(=O)N(C)[C@@H](CC3CCCC3)C(=O)N[C@@H]([C@@H](C)CC)C(=O)N(C)CC(=O)N(C)[C@H]3CCCCCN(C3=O)[C@@H](Cc3ccc(C(F)(F)F)cc3)C(=O)N(C)CC(=O)N[C@@H](CCc3cc(F)c(C(F)(F)F)c(F)c3)C(=O)N2C1 [PP0685] | B (a compound having 3 or more and less than 10 is denoted as B) | B (a compound having 3 or more and less than 10 is denoted as B)
2 | CCO[C@@H]1C[C@H]2C(=O)NC3(CCC3)C(=O)N(C)[C@@H](C3CCCC3)C(=O)N(C)[C@H](C(=O)N3CCOCC3)CC(=O)N(C)[C@@H](CC3CCCCC3)C(=O)N[C@@H]([C@@H](C)CC)C(=O)N(C)CC(=O)N(C)[C@H]3CCCCCN(C3=O)[C@@H](Cc3ccc(C(F)(F)F)cc3)C(=O)N(C)CC(=O)N[C@@H](CCc3cc(F)c(C(F)(F)F)c(F)c3)C(=O)N2C1 [PP0686] | B (a compound having 3 or more and less than 10 is denoted as B) | B (a compound having 3 or more and less than 10 is denoted as B)
3 | CCO[C@@H]1C[C@H]2C(=O)NC3(CCC3)C(=O)N(C)[C@@H](C3CCCC3)C(=O)N(C)[C@H](C(=O)N3CCOCC3)CC(=O)N(C)[C@@H](Cc3ccccc3)C(=O)N[C@@H]([C@@H](C)CC)C(=O)N(C)CC(=O)N(C)[C@H]3CCCCCN(C3=O)[C@@H](Cc3ccc(C(F)(F)F)cc3)C(=O)N(C)CC(=O)N[C@@H](CCc3cc(F)c(C(F)(F)F)c(F)c3)C(=O)N2C1 [PP0687] | B (a compound having 3 or more and less than 10 is denoted as B) | B (a compound having 3 or more and less than 10 is denoted as B)
4 | CCO[C@@H]1C[C@H]2C(=O)NC3(CCC3)C(=O)N(C)[C@@H](C3CCCC3)C(=O)N(C)[C@H](C(=O)N3CCOCC3)CC(=O)N(C)[C@@H](COC)C(=O)N[C@@H]([C@@H](C)CC)C(=O)N(C)CC(=O)N(C)[C@H]3CCCCCN(C3=O)[C@@H](Cc3ccc(C(F)(F)F)cc3)C(=O)N(C)CC(=O)N[C@@H](CCc3cc(F)c(C(F)(F)F)c(F)c3)C(=O)N2C1 [PP0689] | B (a compound having 3 or more and less than 10 is denoted as B) | B (a compound having 3 or more and less than 10 is denoted as B)
5 | CCO[C@@H]1C[C@H]2C(=O)NC3(CCC3)C(=O)N(C)[C@@H](C3CCCC3)C(=O)N(C)[C@H](C(=O)N3CCOCC3)CC(=O)N(C)[C@@H](CCOC)C(=O)N[C@@H]([C@@H](C)CC)C(=O)N(C)CC(=O)N(C)[C@H]3CCCCCN(C3=O)[C@@H](Cc3ccc(C(F)(F)F)cc3)C(=O)N(C)CC(=O)N[C@@H](CCc3cc(F)c(C(F)(F)F)c(F)c3)C(=O)N2C1 [PP0690] | B (a compound having 3 or more and less than 10 is denoted as B) | B (a compound having 3 or more and less than 10 is denoted as B)
6 | CCO[C@@H]1C[C@H]2C(=O)NC3(CCC3)C(=O)N(C)[C@@H](C3CCCC3)C(=O)N(C)[C@H](C(=O)N(C)C)CC(=O)N(C)[C@@H](CC)C(=O)N[C@@H]([C@@H](C)CC)C(=O)N(C)CC(=O)N(C)[C@H]3CCCCN(C3=O)[C@@H](Cc3ccc(C(F)(F)F)cc3)C(=O)N(C)CC(=O)N[C@@H](CCc3cc(F)c(C(F)(F)F)c(F)c3)C(=O)N2C1 [PP0693] | C (A compound having a KD ratio of 0.1 or more and less than 3 is denoted as C) | C (A compound having a KD ratio of 0.1 or more and less than 3 is denoted as C)
7 | CCC[C@H]1C(=O)N[C@@H]([C@@H](C)CC)C(=O)N(C)CC(=O)N(C)[C@H]2CCCCN(C2=O)[C@@H](Cc2ccc(C(F)(F)F)cc2)C(=O)N(C)CC(=O)N[C@@H](CCc2cc(F)c(C(F)(F)F)c(F)c2)C(=O)N2C[C@H](OCC)C[C@H]2C(=O)NC2(CCC2)C(=O)N(C)[C@@H](C2CCCC2)C(=O)N(C)[C@H](C(=O)N(C)C)CC(=O)N1C [PP0694] | C (A compound having a KD ratio of 0.1 or more and less than 3 is denoted as C) | C (A compound having a KD ratio of 0.1 or more and less than 3 is denoted as C)
8 | C=CC[C@H]1C(=O)N[C@@H]([C@@H](C)CC)C(=O)N(C)CC(=O)N(C)[C@H]2CCCCN(C2=O)[C@@H](Cc2ccc(C(F)(F)F)cc2)C(=O)N(C)CC(=O)N[C@@H](CCc2cc(F)c(C(F)(F)F)c(F)c2)C(=O)N2C[C@H](OCC)C[C@H]2C(=O)NC2(CCC2)C(=O)N(C)[C@@H](C2CCCC2)C(=O)N(C)[C@H](C(=O)N(C)C)CC(=O)N1C [PP0695] | C (A compound having a KD ratio of 0.1 or more and less than 3 is denoted as C) | C (A compound having a KD ratio of 0.1 or more and less than 3 is denoted as C)
9 | C#CC[C@H]1C(=O)N[C@@H]([C@@H](C)CC)C(=O)N(C)CC(=O)N(C)[C@H]2CCCCN(C2=O)[C@@H](Cc2ccc(C(F)(F)F)cc2)C(=O)N(C)CC(=O)N[C@@H](CCc2cc(F)c(C(F)(F)F)c(F)c2)C(=O)N2C[C@H](OCC)C[C@H]2C(=O)NC2(CCC2)C(=O)N(C)[C@@H](C2CCCC2)C(=O)N(C)[C@H](C(=O)N(C)C)CC(=O)N1C [PP0696] | B (a compound having 3 or more and less than 10 is denoted as B) | B (a compound having 3 or more and less than 10 is denoted as B)
10 | CCO[C@@H]1C[C@H]2C(=O)NC3(CCC3)C(=O)N(C)[C@@H](C3CCCC3)C(=O)N(C)[C@H](C(=O)N(C)C)CC(=O)N(C)[C@@H](CC3CC3)C(=O)N[C@@H]([C@@H](C)CC)C(=O)N(C)CC(=O)N(C)[C@H]3CCCCN(C3=O)[C@@H](Cc3ccc(C(F)(F)F)cc3)C(=O)N(C)CC(=O)N[C@@H](CCc3cc(F)c(C(F)(F)F)c(F)c3)C(=O)N2C1 [PP0697] | C (A compound having a KD ratio of 0.1 or more and less than 3 is denoted as C) | C (A compound having a KD ratio of 0.1 or more and less than 3 is denoted as C)
11 | CCO[C@@H]1C[C@H]2C(=O)NC3(CCC3)C(=O)N(C)[C@@H](C3CCCC3)C(=O)N(C)[C@H](C(=O)N(C)C)CC(=O)N(C)[C@@H](CC3CCC3)C(=O)N[C@@H]([C@@H](C)CC)C(=O)N(C)CC(=O)N(C)[C@H]3CCCCN(C3=O)[C@@H](Cc3ccc(C(F)(F)F)cc3)C(=O)N(C)CC(=O)N[C@@H](CCc3cc(F)c(C(F)(F)F)c(F)c3)C(=O)N2C1 [PP0698] | C (A compound having a KD ratio of 0.1 or more and less than 3 is denoted as C) | C (A compound having a KD ratio of 0.1 or more and less than 3 is denoted as C)
12 | CCO[C@@H]1C[C@H]2C(=O)NC3(CCC3)C(=O)N(C)[C@@H](C3CCCC3)C(=O)N(C)[C@H](C(=O)N(C)C)CC(=O)N(C)[C@@H](CC(C)(C)C)C(=O)N[C@@H]([C@@H](C)CC)C(=O)N(C)CC(=O)N(C)[C@H]3CCCCN(C3=O)[C@@H](Cc3ccc(C(F)(F)F)cc3)C(=O)N(C)CC(=O)N[C@@H](CCc3cc(F)c(C(F)(F)F)c(F)c3)C(=O)N2C1 [PP0699] | C (A compound having a KD ratio of 0.1 or more and less than 3 is denoted as C) | C (A compound having a KD ratio of 0.1 or more and less than 3 is denoted as C)
13 | CCO[C@@H]1C[C@H]2C(=O)NC3(CCC3)C(=O)N(C)[C@@H](C3CCCC3)C(=O)N(C)[C@H](C(=O)N(C)C)CC(=O)N(C)[C@@H](CC3CCCC3)C(=O)N[C@@H]([C@@H](C)CC)C(=O)N(C)CC(=O)N(C)[C@H]3CCCCN(C3=O)[C@@H](Cc3ccc(C(F)(F)F)cc3)C(=O)N(C)CC(=O)N[C@@H](CCc3cc(F)c(C(F)(F)F)c(F)c3)C(=O)N2C1 [PP0700] | C (A compound having a KD ratio of 0.1 or more and less than 3 is denoted as C) | B (a compound having 3 or more and less than 10 is denoted as B)
14 | CCO[C@@H]1C[C@H]2C(=O)NC3(CCC3)C(=O)N(C)[C@@H](C3CCCC3)C(=O)N(C)[C@H](C(=O)N(C)C)CC(=O)N(C)[C@@H](CC3CCCCC3)C(=O)N[C@@H]([C@@H](C)CC)C(=O)N(C)CC(=O)N(C)[C@H]3CCCCN(C3=O)[C@@H](Cc3ccc(C(F)(F)F)cc3)C(=O)N(C)CC(=O)N[C@@H](CCc3cc(F)c(C(F)(F)F)c(F)c3)C(=O)N2C1 [PP0701] | C (A compound having a KD ratio of 0.1 or more and less than 3 is denoted as C) | B (a compound having 3 or more and less than 10 is denoted as B)
15 | CCO[C@@H]1C[C@H]2C(=O)NC3(CCC3)C(=O)N(C)[C@@H](C3CCCC3)C(=O)N(C)[C@H](C(=O)N(C)C)CC(=O)N(C)[C@@H](Cc3cccnc3)C(=O)N[C@@H]([C@@H](C)CC)C(=O)N(C)CC(=O)N(C)[C@H]3CCCCN(C3=O)[C@@H](Cc3ccc(C(F)(F)F)cc3)C(=O)N(C)CC(=O)N[C@@H](CCc3cc(F)c(C(F)(F)F)c(F)c3)C(=O)N2C1 [PP0703] | C (A compound having a KD ratio of 0.1 or more and less than 3 is denoted as C) | B (a compound having 3 or more and less than 10 is denoted as B)
